Assay results taken from the supplement of paper PMC10307832.

Experiments:
Test in all cases: relative viability (nuclei count vs DMSO), 5 days (fraction); higher = more cells survive
NCI-H1915 = system: NCI-H1915
How it was run: (§1)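 Medians of duplicate plates are given as relative viability. That measure is the nuclei count in treated wells divided by the count in vehicle wells. Counts were taken on 4× images of lung cancer cell lines in 1536-well plates, 5 days after pin-tool dosing the day after seeding with one drug alone or a fixed anchor-drug dose plus five library-drug doses (not always all listed) in √10 steps.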

NCI-H441 = system: NCI-H441
How it was run: as §1

NCI-H2170 = system: NCI-H2170
How it was run: as §1

LCLC-97TM1 = system: LCLC-97TM1
How it was run: as §1

NCI-H2405 = system: NCI-H2405
How it was run: as §1

A-427 = system: A-427
How it was run: as §1

LXF-289 = system: LXF-289
How it was run: as §1

NCI-H838 = system: NCI-H838
How it was run: as §1

HARA = system: HARA
How it was run: as §1

NCI-H520 = system: NCI-H520
How it was run: as §1

HCC-366 = system: HCC-366
How it was run: as §1

NCI-H1993 = system: NCI-H1993
How it was run: as §1

PC-14 = system: PC-14
How it was run: as §1

NCI-H2228 = system: NCI-H2228
How it was run: as §1

NCI-H1975 = system: NCI-H1975
How it was run: as §1

HCC-44 = system: HCC-44
How it was run: as §1

RERF-LC-KJ = system: RERF-LC-KJ
How it was run: as §1

NCI-H2347 = system: NCI-H2347
How it was run: as §1

H3255 = system: H3255
How it was run: as §1

NCI-H1395 = system: NCI-H1395
How it was run: as §1

NCI-H1755 = system: NCI-H1755
How it was run: as §1

SK-MES-1 = system: SK-MES-1
How it was run: as §1

NCI-H3122 = system: NCI-H3122
How it was run: as §1

C=C1C(=O)O[C@@H](CCCCCCCC)[C@@H]1C(=O)O [C-75] + CC(=O)c1c(C)c2cnc(Nc3ccc(N4CCNCC4)cn3)nc2n(C2CCCC2)c1=O [Palbociclib] (partner 0.5 µM)
relative viability (NCI-H1915; first compound 0.08 µM): 0.515 | relative viability (NCI-H1915; first compound 0.253 µM): 0.556 | relative viability (NCI-H1915; first compound 0.8 µM): 0.546 | relative viability (NCI-H1915; first compound 2.53 µM): 0.472 | relative viability (NCI-H1915; first compound 8 µM): 0.5 | relative viability (NCI-H441; first compound 0.08 µM): 0.255 | relative viability (NCI-H441; first compound 0.253 µM): 0.255 | relative viability (NCI-H441; first compound 0.8 µM): 0.205 | relative viability (NCI-H441; first compound 8 µM): 0.184 | relative viability (NCI-H2170; first compound 0.08 µM): 0.388 | relative viability (NCI-H2170; first compound 0.253 µM): 0.406 | relative viability (NCI-H2170; first compound 0.8 µM): 0.377 | relative viability (NCI-H2170; first compound 2.53 µM): 0.319 | relative viability (NCI-H2170; first compound 8 µM): 0.424 | relative viability (LCLC-97TM1; first compound 0.08 µM): 0.225 | relative viability (LCLC-97TM1; first compound 0.253 µM): 0.261 | relative viability (LCLC-97TM1; first compound 0.8 µM): 0.177 | relative viability (LCLC-97TM1; first compound 2.53 µM): 0.18 | relative viability (LCLC-97TM1; first compound 8 µM): 0.239 | relative viability (NCI-H2405; first compound 0.08 µM): 0.523 | relative viability (NCI-H2405; first compound 0.253 µM): 0.384 | relative viability (NCI-H2405; first compound 0.8 µM): 0.557 | relative viability (NCI-H2405; first compound 2.53 µM): 0.423 | relative viability (NCI-H2405; first compound 8 µM): 0.515 | relative viability (A-427; first compound 0.08 µM): 0.531 | relative viability (A-427; first compound 0.253 µM): 0.468 | relative viability (A-427; first compound 0.8 µM): 0.49 | relative viability (A-427; first compound 2.53 µM): 0.464 | relative viability (A-427; first compound 8 µM): 0.523 | relative viability (LXF-289; first compound 0.08 µM): 0.567 | relative viability (LXF-289; first compound 0.253 µM): 0.553 | relative viability (LXF-289; first compound 0.8 µM): 0.597 | relative viability (LXF-289; first compound 2.53 µM): 0.604 | relative viability (LXF-289; first compound 8 µM): 0.621 | relative viability (NCI-H838; first compound 0.08 µM): 0.227 | relative viability (NCI-H838; first compound 0.253 µM): 0.206 | relative viability (NCI-H838; first compound 0.8 µM): 0.194 | relative viability (NCI-H838; first compound 2.53 µM): 0.207 | relative viability (NCI-H838; first compound 8 µM): 0.206 | relative viability (HARA; first compound 0.08 µM): 0.254 | relative viability (HARA; first compound 0.253 µM): 0.222 | relative viability (HARA; first compound 0.8 µM): 0.273 | relative viability (HARA; first compound 2.53 µM): 0.222 | relative viability (HARA; first compound 8 µM): 0.28 | relative viability (NCI-H520; first compound 0.08 µM): 0.186 | relative viability (NCI-H520; first compound 0.253 µM): 0.238 | relative viability (NCI-H520; first compound 0.8 µM): 0.225 | relative viability (NCI-H520; first compound 2.53 µM): 0.225 | relative viability (NCI-H520; first compound 8 µM): 0.211 | relative viability (HCC-366; first compound 0.08 µM): 0.363 | relative viability (HCC-366; first compound 0.253 µM): 0.477 | relative viability (HCC-366; first compound 0.8 µM): 0.33 | relative viability (HCC-366; first compound 2.53 µM): 0.334 | relative viability (HCC-366; first compound 8 µM): 0.343 | relative viability (NCI-H1993; first compound 0.08 µM): 0.618 | relative viability (NCI-H1993; first compound 0.253 µM): 0.778 | relative viability (NCI-H1993; first compound 0.8 µM): 0.719 | relative viability (NCI-H1993; first compound 2.53 µM): 0.553 | relative viability (NCI-H1993; first compound 8 µM): 0.642 | relative viability (PC-14; first compound 0.08 µM): 0.54 | relative viability (PC-14; first compound 0.253 µM): 0.546 | relative viability (PC-14; first compound 0.8 µM): 0.504 | relative viability (PC-14; first compound 2.53 µM): 0.453 | relative viability (PC-14; first compound 8 µM): 0.445 | relative viability (NCI-H2228; first compound 0.08 µM): 0.743 | relative viability (NCI-H2228; first compound 0.253 µM): 0.988 | relative viability (NCI-H2228; first compound 0.8 µM): 0.589 | relative viability (NCI-H2228; first compound 2.53 µM): 0.7 | relative viability (NCI-H2228; first compound 8 µM): 0.681 | relative viability (NCI-H1975; first compound 0.08 µM): 0.67 | relative viability (NCI-H1975; first compound 0.253 µM): 0.433 | relative viability (NCI-H1975; first compound 0.8 µM): 0.525 | relative viability (NCI-H1975; first compound 2.53 µM): 0.484 | relative viability (NCI-H1975; first compound 8 µM): 0.581 | relative viability (HCC-44; first compound 0.08 µM): 0.971 | relative viability (HCC-44; first compound 0.253 µM): 1.1 | relative viability (HCC-44; first compound 0.8 µM): 1.02 | relative viability (HCC-44; first compound 2.53 µM): 0.956 | relative viability (HCC-44; first compound 8 µM): 0.996 | relative viability (RERF-LC-KJ; first compound 0.08 µM): 1.06 | relative viability (RERF-LC-KJ; first compound 0.253 µM): 1.12 | relative viability (RERF-LC-KJ; first compound 0.8 µM): 1.07 | relative viability (RERF-LC-KJ; first compound 2.53 µM): 1.03 | relative viability (RERF-LC-KJ; first compound 8 µM): 1.15 | relative viability (NCI-H2347; first compound 0.08 µM): 0.468 | relative viability (NCI-H2347; first compound 0.253 µM): 0.44 | relative viability (NCI-H2347; first compound 0.8 µM): 0.35 | relative viability (NCI-H2347; first compound 2.53 µM): 0.389 | relative viability (NCI-H2347; first compound 8 µM): 0.413 | relative viability (H3255; first compound 0.08 µM): 0.319 | relative viability (H3255; first compound 0.253 µM): 0.28 | relative viability (H3255; first compound 0.8 µM): 0.323 | relative viability (H3255; first compound 2.53 µM): 0.281 | relative viability (H3255; first compound 8 µM): 0.329 | relative viability (NCI-H1395; first compound 0.08 µM): 0.586 | relative viability (NCI-H1395; first compound 0.253 µM): 0.584 | relative viability (NCI-H1395; first compound 2.53 µM): 0.588 | relative viability (NCI-H1395; first compound 8 µM): 0.597 | relative viability (NCI-H1755; first compound 0.08 µM): 0.417 | relative viability (NCI-H1755; first compound 0.253 µM): 0.428 | relative viability (NCI-H1755; first compound 0.8 µM): 0.42 | relative viability (NCI-H1755; first compound 2.53 µM): 0.378 | relative viability (NCI-H1755; first compound 8 µM): 0.408 | relative viability (SK-MES-1; first compound 0.08 µM): 0.321 | relative viability (SK-MES-1; first compound 0.253 µM): 0.349 | relative viability (SK-MES-1; first compound 0.8 µM): 0.309 | relative viability (SK-MES-1; first compound 2.53 µM): 0.264 | relative viability (SK-MES-1; first compound 8 µM): 0.292 | relative viability (NCI-H3122; first compound 0.08 µM): 0.18 | relative viability (NCI-H3122; first compound 0.253 µM): 0.193 | relative viability (NCI-H3122; first compound 0.8 µM): 0.153 | relative viability (NCI-H3122; first compound 2.53 µM): 0.18 | relative viability (NCI-H3122; first compound 8 µM): 0.213
